The values below come from PMC8802628, “Selective activation of PFKL suppresses the phagocytic oxidative burst” (Cell, 2021).

One experiment has as its target T1, recombinant NE (Homo sapiens, UniProt P08246).
T1 construct: purchased Abcam ab91099
The experiment in a line: NE activity assay. The format is biochemical. As to the method: NA-11 and LDC7559 were incubated at the indicated concentrations with 25 ng of recombinant NE for 20 min. NE activity was measured using a fluorescence NE activity assay kit (Abcam).

In experiment [1] the test system is human peripheral blood neutrophils. The experiment in a line: NETosis assay in human neutrophils (SYTOX Green, DNA area). The format is cell-based.
A further experiment deals with T2, PFKL (Homo sapiens, UniProt P17858).
T2 construct: made in house; host or cells: Sf9 insect cells (baculovirus, Bac-to-Bac)
T2 sequence (P17858 1-780): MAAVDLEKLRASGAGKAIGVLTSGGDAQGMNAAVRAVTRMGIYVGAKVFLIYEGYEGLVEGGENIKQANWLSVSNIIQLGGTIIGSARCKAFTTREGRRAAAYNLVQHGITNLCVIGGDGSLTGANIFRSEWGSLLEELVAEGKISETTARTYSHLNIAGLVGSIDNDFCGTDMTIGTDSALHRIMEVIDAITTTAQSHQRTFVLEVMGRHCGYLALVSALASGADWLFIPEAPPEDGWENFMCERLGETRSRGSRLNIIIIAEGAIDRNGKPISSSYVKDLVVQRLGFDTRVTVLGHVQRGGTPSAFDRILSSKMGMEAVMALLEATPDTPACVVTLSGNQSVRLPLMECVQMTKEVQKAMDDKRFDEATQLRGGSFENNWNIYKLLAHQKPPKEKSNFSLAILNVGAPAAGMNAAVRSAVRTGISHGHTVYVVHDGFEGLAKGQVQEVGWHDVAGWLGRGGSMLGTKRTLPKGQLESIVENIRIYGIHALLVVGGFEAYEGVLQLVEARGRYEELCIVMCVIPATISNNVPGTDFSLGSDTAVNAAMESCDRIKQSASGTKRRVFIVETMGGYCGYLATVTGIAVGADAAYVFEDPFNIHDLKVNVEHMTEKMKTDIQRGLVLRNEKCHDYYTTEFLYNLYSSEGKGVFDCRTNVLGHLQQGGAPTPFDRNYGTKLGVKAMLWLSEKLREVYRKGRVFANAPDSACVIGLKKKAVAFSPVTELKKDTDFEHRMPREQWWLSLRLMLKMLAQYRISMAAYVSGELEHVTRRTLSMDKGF
The experiment is described as follows: Recombinant PFKL activity assay (relief of ATP inhibition). The format is biochemical. An excerpt: Recombinant N-terminal His-tagged human PFKL (NP_002617), PFKM (NP_000280), and PFKP (NM_002627.4) were generated as described ([Webb et al., 2015], [2017]). Point mutants of PFK1 were generated using the QuikChange Lightning kit (Aligent).
His-tagged PFK1 was expressed and purified as described with slight modifications ([Webb et al., 2015], [2017]). Briefly, baculovirus was generated using the Bac-to-Bac Expression system (Invitrogen). PFK1 was expressed in 2-5 × 10^6 sf9 cells at a multiplicity of infection of two for 48 h. Cells were lysed in 20 mM HEPES, pH 7.5, 80 mM potassium phosphate, 1 mM 2-mercapentoethanol, 10% glycerol, 10 mM imidazole, and EDTA-free Protease Inhibitor Cocktail (Abcam) with a Dounce homogenizer. The soluble lysate was incubated with HisPur cobalt resin (ThermoFisher Scientific). The resin was washed with 5 bead volumes lysis buffer, 10 bead volumes lysis buffer containing 2 M NaCl, and 5 further bead volumes lysis buffer. PFK1 was eluted in lysis buffer containing 100 mM imidazole. Fractions containing protein were pooled, passed over a desalting column equilibrated in freezing buffer [20 mM HEPES pH 7.5, 1 mM DTT, 500 μM ammonium sulfate, 5% glycerol, 1 mM ATP, and 100 μM EDTA] and concentrated using an Amicon Ultracel-30K Centrifugal Filter Unit (MilliporeSigma). Protein was quantified using a Bradford Protein Assay kit (ThermoFisher Scientific), and aliquotes frozen in liquid nitrogen for storage at −80°C.
PFK1 activity was determined using the rate of FBP production via an auxiliary enzyme assay adapted to a 96-well format ([Brüser et al., 2012]; [Webb et al., 2015]). The auxiliary enzymes aldolase, triosephosphate isomerase, and glycerol phosphate dehydrogenase were purchased from MilliporeSigma as ammonium sulfate slurries and desalted using an Amicon Ultracel-10K Centrifugal Filter Unit. For assays containing FBP, the rate of ADP production was determined using the auxiliary enzymes pyruvate kinase (PK) and lactate dehydrogenase (LDH) (MilliporeSigma) in a buffer containing 250 μM phosphoenolpyruvic acid, […] NADH, 50 mM HEPES pH 7.5, 100 mM KCl, 1 mM DTT, and effector concentrations as described in the text. The temperature was equilibrated to 25°C for 5 min before initiating the reaction 10 mM MgCl2. Absorbance at 340 nm was measured using a Varioskan LUX Multimode microplate reader (ThermoFisher). Kinetic parameters were generated by nonlinear regression analysis using Prism (GraphPad Software) and are the mean of a minimum of three measurements from two independent preparations of protein. One unit of activity was defined as the amount of enzyme that catalyzed the formation of 1 μmol of fructose 1,6-bisphosphate per min at 25°C. Assays for PFKM were performed at pH 7.0 due to the pH-dependence of ATP inhibition ([Trivedi and Danforth, 1966]).

[2] abbreviates: pH 7.5, 3.1 mM ATP, 4 mM F6P, mean ± SEM, read-out: EC50, activation of PFKL wild type.
Where [3] appears, read: PFKL wild type, pH 7.5, 225 μM ATP.

SMILES strings stand for the structures. Where two headings read alike, the source gives them in different places.

T1 sequence (P08246 30-267): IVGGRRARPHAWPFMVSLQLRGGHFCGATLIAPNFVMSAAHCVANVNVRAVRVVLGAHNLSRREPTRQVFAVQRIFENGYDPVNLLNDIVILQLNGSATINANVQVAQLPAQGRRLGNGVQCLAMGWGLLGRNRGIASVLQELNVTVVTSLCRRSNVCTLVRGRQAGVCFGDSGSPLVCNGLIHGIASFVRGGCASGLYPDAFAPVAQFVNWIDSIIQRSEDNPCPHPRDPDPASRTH

Usually EC50 stands for the midpoint of the concentration-response curve. In the case of `COc1ccccc1-c1cc2n(n1)Cc1ccc(NC(C)=O)cc1OC2` [LDC7559, reference compound], the “inhibition of recombinant NE” value on recombinant NE is “neither LDC7559 nor NA-11 inhibited recombinant NE”. The “NETosis in response to PMA” value in experiment [1] (10 μM compound, compared with DMSO vehicle) was “defective NETosis”. Further, the EC50 on PFKL (setting [2]) was determined as 0.066 ± 0.0189 µM.
Regarding `O=C(CO)[C@@H](O)[C@H](O)[C@H](O)COP(=O)(O)O` [F6P, fructose 6-phosphate], at PFKL (setting [3]), the “Vmax,F6P” value was 13.28 ± 1.69 micromoles FBP per minute per milligram PFK1 and the “hF6P (Hill coefficient)” value was 3.16 ± 0.89.
Take `CC(=O)Nc1ccc2c(c1)OCc1cc(-c3ccccc3)nn1C2` [NA-5]: the EC50 on PFKL (setting [2]) was 0.0192 ± 0.00679 µM.
With `CC(=O)Nc1ccc2c(c1)OCc1cc(-c3ccccc3C#CCCCO)nn1C2` [NA-11], the “inhibition of recombinant NE” value at recombinant NE was “neither LDC7559 nor NA-11 inhibited recombinant NE”. Further, the “time of addition after PMA up to which NETosis was inhibited” value in experiment [1] (compound added after PMA-induced activation) is “up to 1 h”. The EC50 turned out to be 0.012 ± 0.00273 µM at PFKL (Control (ligand series), pH 7.5, 4.0 mM F6P, 3.1 mM ATP, read-out: EC50, NA-11); 0.074 ± 0.0209 µM at PFKL (pH 7.0, 4.0 mM F6P, 3.1 mM ATP, mean ± s.e.m., read-out: EC50, NA-11); 0.0218 ± 0.00621 µM on PFKL (pH 7.5 (pH series), 4.0 mM F6P, 3.1 mM ATP, mean ± s.e.m., read-out: EC50, NA-11); 0.014 ± 0.00291 µM at PFKL (setting [2]); 0.00411 ± 0.00092 µM at PFKL (pH 8.0, 4.0 mM F6P, 3.1 mM ATP, mean ± s.e.m., read-out: EC50, NA-11); 0.0123 ± 0.00338 µM at PFKL (with 50 μM AMP, pH 7.5, 4.0 mM F6P, 3.1 mM ATP, read-out: EC50, NA-11). The EC50 on PFKL (with 200 μM FBP, pH 7.5, 4.0 mM F6P, 3.1 mM ATP, read-out: EC50, NA-11) was 0.012 ± 0.00699 µM. For the same compound, the Vmax at PFKL (NA-11 titration with 50 μM AMP, pH 7.5, 4.0 mM F6P, 3.1 mM ATP) is listed as 18.11 ± 1.23 μmoles FBP per min per mg PFK1; on PFKL (NA-11 titration with 200 μM FBP, pH 7.5, 4.0 mM F6P, 3.1 mM ATP), 21.31 ± 2.44 μmoles FBP per min per mg PFK1; on PFKL (NA-11 titration, Control, pH 7.5, 4.0 mM F6P, 3.1 mM ATP), 18.19 ± 1.29 μmoles FBP per min per mg PFK1.
